Measured values from publication PMC6572064, “Discovery of 2-(1-(3-(4-Chloroxyphenyl)-3-oxo- propyl)pyrrolidine-3-yl)-1H-benzo[d]imidazole-4-carboxamide: A Potent Poly(ADP-ribose) Polymerase (PARP) Inhibitor for Treatment of Cancer” (Molecules, 2019).
Where two headings read alike, the source gives them in different places.

How the values were obtained:
PARP-1 = biological target: T1, PARP-1 (Homo sapiens, UniProt P09874); test: PARP-1 inhibition assay (PARP-1 Chemiluminescent Assay Kit, BPS Bioscience); assay type: biochemical; conditions: 10 nM compound
T1 construct: purchased BPS Bioscience 80569
Experimental: (§1) The PARP-1 and PARP-2 inhibition assays were performed in outsourcing, by a CRO company, Shanghai Medicilon Inc. (Shanghai, China). […] Briefly, PARP-1 or PARP-2 biotinylated substrate was incubated with compounds or solvent control at varying concentrations and an assay buffer containing the PARP-1 or PARP-2 enzyme.

PARP-2 = biological target: T2, PARP-2 (Homo sapiens, UniProt Q9UGN5); test: PARP-2 inhibition assay (PARP-2 Chemiluminescent Assay Kit, BPS Bioscience); assay type: biochemical; conditions: 10 nM compound
T2 construct: purchased BPS Bioscience 80552
Experimental: as §1

[1] = system: MDA-MB-436 (a BRCA-1-mutated breast cancer cell line); test: Cell proliferation assay, three-day, CellTiter-Glo, MDA-MB-436; assay type: cell-based; conditions: Homo sapiens; for inhibition at 0.00508 µM: MDA-MB-436, MDA-MB-436, Conc. 0.00508 uM; for inhibition at 0.0152 µM: MDA-MB-436, MDA-MB-436, Conc. 0.0152 uM; for inhibition at 0.0457 µM: MDA-MB-436, MDA-MB-436, Conc. 0.0457 uM; for inhibition at 0.41 µM: MDA-MB-436, MDA-MB-436, Conc. 0.41 uM; for inhibition at 1.23 µM: MDA-MB-436, MDA-MB-436, Conc. 1.23 uM; for inhibition at 3.7 µM: MDA-MB-436, MDA-MB-436, Conc. 3.70 uM; for inhibition at 11.11 µM: MDA-MB-436, MDA-MB-436, Conc. 11.11 uM; for inhibition at 33.33 µM: MDA-MB-436, MDA-MB-436, Conc. 33.33 uM; for inhibition at 100 µM: MDA-MB-436, MDA-MB-436, Conc. 100.00 uM
Method in brief: (§2)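 Cells seeded overnight in 384-well plates, then exposed to compounds (DMSO stock diluted in medium) for 72 h at 37 °C, 5% CO2. Viability read as CellTiter-Glo luminescence after 60 min at room temperature.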

[2] = system: CAPAN-1 (a BRCA-2-mutated pancreatic cancer cell line); test: Cell proliferation assay, three-day, CellTiter-Glo, CAPAN-1; assay type: cell-based; conditions: Homo sapiens; for inhibition at 0.00508 µM: CAPAN-1, Conc. 0.00508 uM; for inhibition at 0.0152 µM: CAPAN-1, Conc. 0.0152 uM; for inhibition at 0.0457 µM: CAPAN-1, Conc. 0.0457 uM; for inhibition at […]: CAPAN-1, Conc. 0.14 uM; for inhibition at 0.41 µM: CAPAN-1, Conc. 0.41 uM; for inhibition at 1.23 µM: CAPAN-1, Conc. 1.23 uM; for inhibition at 3.7 µM: CAPAN-1, Conc. 3.70 uM; for inhibition at 11.11 µM: CAPAN-1, Conc. 11.11 uM; for inhibition at 33.33 µM: CAPAN-1, Conc. 33.33 uM; for inhibition at 100 µM: CAPAN-1, Conc. 100.00 uM
Method in brief: as §2

T1 sequence (P09874 whole entry): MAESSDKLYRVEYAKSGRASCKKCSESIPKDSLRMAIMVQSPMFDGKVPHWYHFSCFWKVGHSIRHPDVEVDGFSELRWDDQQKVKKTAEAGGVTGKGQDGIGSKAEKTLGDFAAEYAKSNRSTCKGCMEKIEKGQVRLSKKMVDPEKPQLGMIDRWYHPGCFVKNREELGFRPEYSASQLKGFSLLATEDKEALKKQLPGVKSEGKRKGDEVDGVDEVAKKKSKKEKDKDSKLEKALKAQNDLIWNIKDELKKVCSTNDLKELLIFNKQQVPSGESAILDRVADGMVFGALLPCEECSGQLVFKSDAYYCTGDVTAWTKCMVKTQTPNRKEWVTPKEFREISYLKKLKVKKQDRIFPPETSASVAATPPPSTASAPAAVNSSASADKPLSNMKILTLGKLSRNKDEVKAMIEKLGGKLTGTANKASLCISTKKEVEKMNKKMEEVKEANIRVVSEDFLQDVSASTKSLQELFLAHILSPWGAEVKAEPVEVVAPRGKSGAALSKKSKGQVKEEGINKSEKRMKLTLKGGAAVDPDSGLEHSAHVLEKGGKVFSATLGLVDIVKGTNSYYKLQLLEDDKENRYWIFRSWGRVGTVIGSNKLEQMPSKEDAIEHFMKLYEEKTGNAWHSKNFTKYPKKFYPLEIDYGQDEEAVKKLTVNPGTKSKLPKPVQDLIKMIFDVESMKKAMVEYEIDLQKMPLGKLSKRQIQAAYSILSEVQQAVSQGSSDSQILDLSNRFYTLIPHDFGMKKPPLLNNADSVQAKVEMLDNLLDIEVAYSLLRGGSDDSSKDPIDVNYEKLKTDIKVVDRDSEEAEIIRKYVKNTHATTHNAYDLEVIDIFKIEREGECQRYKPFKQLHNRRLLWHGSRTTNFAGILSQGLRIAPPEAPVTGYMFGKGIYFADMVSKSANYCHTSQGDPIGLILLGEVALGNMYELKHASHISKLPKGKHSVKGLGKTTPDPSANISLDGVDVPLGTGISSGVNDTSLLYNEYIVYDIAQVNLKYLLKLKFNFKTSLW
T2 sequence (Q9UGN5 whole entry): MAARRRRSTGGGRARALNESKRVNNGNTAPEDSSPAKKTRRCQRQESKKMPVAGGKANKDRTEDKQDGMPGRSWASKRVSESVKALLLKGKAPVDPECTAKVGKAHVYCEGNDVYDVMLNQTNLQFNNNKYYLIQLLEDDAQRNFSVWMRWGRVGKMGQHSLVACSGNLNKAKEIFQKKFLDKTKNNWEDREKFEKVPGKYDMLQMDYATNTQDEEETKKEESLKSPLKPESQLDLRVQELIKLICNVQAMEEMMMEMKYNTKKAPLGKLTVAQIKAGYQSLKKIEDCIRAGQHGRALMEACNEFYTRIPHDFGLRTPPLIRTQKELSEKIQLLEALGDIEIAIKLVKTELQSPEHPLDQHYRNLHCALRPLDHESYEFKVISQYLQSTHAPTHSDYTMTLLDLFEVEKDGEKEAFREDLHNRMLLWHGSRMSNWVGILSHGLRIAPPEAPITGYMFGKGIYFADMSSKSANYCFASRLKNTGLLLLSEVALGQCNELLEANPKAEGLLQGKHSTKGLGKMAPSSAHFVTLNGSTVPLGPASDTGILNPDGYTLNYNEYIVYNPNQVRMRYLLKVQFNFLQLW

SMILES: NCCCN1CCC(c2nc3c(C(N)=O)cccc3[nH]2)C1 (centres unmarked) [Compound 5cl, 2-(1-(3-Aminopropyl)pyrrolidin-3-yl)-1H-benzo[d]imidazole-4-carboxamide]
- inhibition at 0.01 µM (PARP-1; supplement sheet, read-out: 10 nM inhibition% PAPR-1): 26.8%
- inhibition at 0.01 µM (PARP-1; read-out: PARP-1 Inhibition % (10 nM)): 26.8%
- inhibition at 0.01 µM (PARP-2; supplement sheet, read-out: 10 nM inhibition% PAPR-2): 46.4%
- inhibition at 0.01 µM (PARP-2; read-out: PARP-2 Inhibition % (10 nM)): 46.4%
- inhibition at 0.00508 µM ([1]; replicate 1, read-out: Inh % 1): 4.5%
- inhibition at 0.00508 µM ([1]; replicate 2, read-out: Inh % 2): -3.7%
- inhibition at 0.0152 µM ([1]; replicate 1, read-out: Inh % 1): 0.4%
- inhibition at 0.0152 µM ([1]; replicate 2, read-out: Inh % 2): -4.9%
- inhibition at 0.0457 µM ([1]; replicate 1, read-out: Inh % 1): -13.5%
- inhibition at 0.0457 µM ([1]; replicate 2, read-out: Inh % 2): -10.1%
- inhibition at 0.41 µM ([1]; replicate 1, read-out: Inh % 1): -7.3%
- inhibition at 0.41 µM ([1]; replicate 2, read-out: Inh % 2): -7.6%
- inhibition at 1.23 µM ([1]; replicate 1, read-out: Inh % 1): -9%
- inhibition at 1.23 µM ([1]; replicate 2, read-out: Inh % 2): -8.7%
- inhibition at 3.7 µM ([1]; replicate 1, read-out: Inh % 1): -7.4%
- inhibition at 3.7 µM ([1]; replicate 2, read-out: Inh % 2): -9.8%
- inhibition at 11.11 µM ([1]; replicate 1, read-out: Inh % 1): -5.4%
- inhibition at 11.11 µM ([1]; replicate 2, read-out: Inh % 2): -5.2%
- inhibition at 33.33 µM ([1]; replicate 1, read-out: Inh % 1): 1.9%
- inhibition at 33.33 µM ([1]; replicate 2, read-out: Inh % 2): -7%
- inhibition at 100 µM ([1]; replicate 1, read-out: Inh % 1): 7.4%
- inhibition at 100 µM ([1]; replicate 2, read-out: Inh % 2): 2.1%
- IC50 ([1]; MDA-MB-436, 72 h, CellTiter-Glo, read-out: MDA-MB-436 IC50): > 100 µM
- IC50 ([2]; CAPAN-1, 72 h, CellTiter-Glo, read-out: CAPAN-1 IC50): > 100 µM
- inhibition at 0.00508 µM ([2]; replicate 1, read-out: Inh % 1): 0.0228%
- inhibition at 0.00508 µM ([2]; replicate 2, read-out: Inh % 2): -3.6%
- inhibition at 0.0152 µM ([2]; replicate 1, read-out: Inh % 1): -3.3%
- inhibition at 0.0152 µM ([2]; replicate 2, read-out: Inh % 2): -4.8%
- inhibition at 0.0457 µM ([2]; replicate 1, read-out: Inh % 1): 0.238%
- inhibition at 0.0457 µM ([2]; replicate 2, read-out: Inh % 2): -10.3%
- inhibition at […] ([2]; replicate 1, read-out: Inh % 1): 4.7%
- inhibition at […] ([2]; replicate 2, read-out: Inh % 2): -9.8%
- inhibition at 0.41 µM ([2]; replicate 1, read-out: Inh % 1): 1.3%
- inhibition at 0.41 µM ([2]; replicate 2, read-out: Inh % 2): 5.2%
- inhibition at 1.23 µM ([2]; replicate 1, read-out: Inh % 1): -5.5%
- inhibition at 1.23 µM ([2]; replicate 2, read-out: Inh % 2): 3.8%
- inhibition at 3.7 µM ([2]; replicate 1, read-out: Inh % 1): 4.6%
- inhibition at 3.7 µM ([2]; replicate 2, read-out: Inh % 2): -3%
- inhibition at 11.11 µM ([2]; replicate 1, read-out: Inh % 1): -2.8%
- inhibition at 11.11 µM ([2]; replicate 2, read-out: Inh % 2): -3.6%
- inhibition at 33.33 µM ([2]; replicate 1, read-out: Inh % 1): -7.9%
- inhibition at 33.33 µM ([2]; replicate 2, read-out: Inh % 2): -7.8%
- inhibition at 100 µM ([2]; replicate 1, read-out: Inh % 1): -10.8%
- inhibition at 100 µM ([2]; replicate 2, read-out: Inh % 2): -6.6%
